This note sets out measurements from US4562006A, “Cycloheptadiene derivatives” (Warner-Lambert Company, priority 1984, dated 1985).

One assay addresses leukotriene receptor. Put plainly: leukotriene receptor binding assay (RBL-1).
Conditions: not given
The text has this: The details of the human leukocyte lipoxygenase assay are described below. The soybean lipoxygenase radiochemical is described in Prostaglandins, Leukotrienes, and Medicine, 11, 373-80 (1983). The leukotriene receptor binding assay is described by R. F. Bruns, W. J. Thomsen, and T. A. Pugsley in Life Sciences, 33, 645 (1983).
The following tables illustrate the activity of certain representative compounds of the present invention. The RBL-1 column represent data from the leukotriene receptor binding assay and the LDA(U) column reports on the human leukoxyte lipoxygenase assay.
For `CCCCC/C=C\C=C\C1CC1/C=C\CCCC(=O)O` (stereo not shown) [Example 13, 6-[2-(1,3-nonadienyl)cyclopropyl]-5-hexenoic acid (Z,E,Z)], the IC50 (commonly the concentration needed to halve the response being measured) turned out to be 26.4 µM.

`CCCCCCCC1C=CCC=CC1/C=C\CCCC(=O)O` (stereo not shown) [Example 6, 5-Hexenoic acid, 6-(7-heptyl-2,5-cycloheptadien-1-yl)-] came in with an IC50 of 23.9 µM.

In turn, `CCCCC/C=C\C1C=CCC=CC1CCCCCC(=O)O` (stereo not shown) [Example 12, 2,5-Cycloheptadiene-1-hexanoic acid, 7-(1-heptenyl)-(Z)-] displayed an IC50 of 26.4 µM. Still for that read-out and setting: then `CCCCC/C=C\C=C\C1CC1/C=C\CCCCCC(=O)O` (stereo not shown) [Example 11, 7-Octenoic acid, 8-[2-(1,3-nonadienyl)cyclopropyl]-, (Z,E,Z)], with 10.3 µM; and `CCCCC/C=C\C1C=CCC=CC1CCCC(=O)O` (stereo not shown) [Example 14, 2,5-cycloheptadiene-1-butanoic acid, 7-(1-heptenyl)-, (Z)-], with 53.4 µM; and `CCCCC/C=C\C1C=CCCC=C1/C=C\CCCC(=O)O` (stereo not shown) [Example 18, 5-Hexenoic acid, 6-[7-(1-heptenyl)-1,5-cycloheptadien-1-yl]-], with 17.1 µM.

For the next assay, the target named is human leukocyte lipoxygenase. Put plainly: human leukocyte lipoxygenase assay (LDA). In kind it is biochemical. The following applies: LDA column. How it is done:
An acetone-pentane powder of leukocyte and platelets was prepared from buffy coat obtained from the Michigan Red Cross and Michigan Department of Health in Lansing, Michigan, and was suspended in 5-7 volumes of cold 0.1M tris buffer, pH 7.4 containing 0.154 M NaCl. The suspension was centrifuged at 13,300 g for ten minutes at 4° C. The resultant pellet was retained, resuspended in five volumes of cold acetone, recentrifuged at 13,300 g and resuspended in five volumes of cold pentane. The pentane suspension was centrifuged for ten minutes at 13,300 g to give a pellet which was dried in the cold under vacuum with periodic pulverization. The dry powder is stable for several weeks when stored at -80° C.
This was prepared in the following manner. About 15 mg of the acetone-pentane powder is suspended in 4 ml of cold tris buffer (0.1M, pH 7.4), allowed to stand for five minutes and homogenized thoroughly. The homogenate is sonicated three times for 15 seconds each time, diluted to 7 ml with cold tris buffer (0.1M, pH 7.4) and centrifuged at 4° for 60 minutes at 13,300 g. The supernatant is retained and diluted to a total of 10 ml with cold tris buffer (0.1M, pH 7.4) to give the stock enzyme solution. […]
The enzyme reaction is followed spectrophotometrically by the appearance of a conjugated diene product at 234 nm. The reaction is monitored at 24° using a Gilford Model 2500 spectrophotometer. […]
Compound `CCCCC/C=C\C1C=CCC=CC1CCCCCC(=O)O` (stereo not shown) [Example 12, 2,5-Cycloheptadiene-1-hexanoic acid, 7-(1-heptenyl)-(Z)-] showed an IC50 of 0.74 µM.
